Assay results from PMC12715762, “Discovery of VU6052254: A Novel, Potent M1 Positive Allosteric Modulator” (ACS Chemical Neuroscience, 2025).
pIC50: −log10 of the molar value.

Assays:
[1] = result in words; cited from earlier work
Opiate κ (OP2, KOP) = Opiate κ (OP2, KOP) (Homo sapiens, UniProt P41145); test: Eurofins radioligand binding
[2] = human PK and dose predictions (geometric mean of six methods)
Method: The predicted dose for 7 ranged from 32 to 84 mg QD. Based on this analysis, PAM 7 was advanced to safety and ADME studies.

2B6 = test: CYP450 induction in human hepatocytes (three donors); type: cell-based; conditions: 10 μM, human hepatocytes from three donors
Calcium Channel N-Type = Calcium Channel N-Type (Rattus norvegicus, UniProt Q02294); test: Eurofins radioligand binding
CYP 3A4 = CYP 3A4 (Homo sapiens, UniProt P08684); test: CYP450 inhibition; type: in vitro ADME
Opiate μ (OP3, MOP) = Opiate μ (OP3, MOP) (Homo sapiens, UniProt P35372); test: Eurofins radioligand binding
[3] = test system: Glutamate, NMDA, Phencyclidine; test: Eurofins radioligand binding; conditions: Rat
Adenosine A1 = Adenosine A1 (Homo sapiens, UniProt P30542); test: Eurofins radioligand binding
CYP 2B6 = CYP 2B6 (Homo sapiens, UniProt P20813); test: CYP450 inhibition; type: in vitro ADME
Purinergic P2X = test: Eurofins radioligand binding; conditions: Rat
multispecies PK, summary = type: in vivo; conditions: rat, dog, NHP, plasma, across nonclinical species
[4] = biological target: Transporter, Serotonin (SERT) (Homo sapiens, UniProt P31645); test: Eurofins radioligand binding
Opiate δ1 (OP1, DOP) = Opiate δ1 (OP1, DOP) (Homo sapiens, UniProt P41143); test: Eurofins radioligand binding
Sequence of Opiate δ1 (OP1, DOP) (P41143 whole entry): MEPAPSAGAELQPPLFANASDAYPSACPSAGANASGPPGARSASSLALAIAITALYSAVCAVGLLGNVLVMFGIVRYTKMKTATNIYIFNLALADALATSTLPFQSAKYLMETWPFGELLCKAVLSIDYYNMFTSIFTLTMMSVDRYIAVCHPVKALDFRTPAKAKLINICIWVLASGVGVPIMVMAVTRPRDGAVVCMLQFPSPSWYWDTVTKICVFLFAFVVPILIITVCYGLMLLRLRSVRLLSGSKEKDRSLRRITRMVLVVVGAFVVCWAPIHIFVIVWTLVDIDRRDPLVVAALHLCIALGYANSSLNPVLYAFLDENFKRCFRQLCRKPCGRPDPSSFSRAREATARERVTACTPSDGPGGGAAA

Sequence of CYP 2B6 (P20813 whole entry): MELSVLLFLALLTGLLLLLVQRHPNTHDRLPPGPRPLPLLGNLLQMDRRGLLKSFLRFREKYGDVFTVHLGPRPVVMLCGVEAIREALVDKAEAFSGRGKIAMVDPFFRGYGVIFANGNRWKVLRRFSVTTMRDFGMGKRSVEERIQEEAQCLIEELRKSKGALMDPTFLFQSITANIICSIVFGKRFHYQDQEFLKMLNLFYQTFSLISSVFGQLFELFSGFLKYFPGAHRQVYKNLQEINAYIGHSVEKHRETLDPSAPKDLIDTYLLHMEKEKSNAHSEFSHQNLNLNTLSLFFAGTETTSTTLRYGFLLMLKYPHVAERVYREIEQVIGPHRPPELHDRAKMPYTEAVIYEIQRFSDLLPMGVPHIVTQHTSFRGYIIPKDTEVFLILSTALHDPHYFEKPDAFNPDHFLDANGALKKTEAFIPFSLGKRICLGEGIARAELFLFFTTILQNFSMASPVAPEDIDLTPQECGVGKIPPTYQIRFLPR
Sequence of Transporter, Serotonin (SERT) (P31645 whole entry): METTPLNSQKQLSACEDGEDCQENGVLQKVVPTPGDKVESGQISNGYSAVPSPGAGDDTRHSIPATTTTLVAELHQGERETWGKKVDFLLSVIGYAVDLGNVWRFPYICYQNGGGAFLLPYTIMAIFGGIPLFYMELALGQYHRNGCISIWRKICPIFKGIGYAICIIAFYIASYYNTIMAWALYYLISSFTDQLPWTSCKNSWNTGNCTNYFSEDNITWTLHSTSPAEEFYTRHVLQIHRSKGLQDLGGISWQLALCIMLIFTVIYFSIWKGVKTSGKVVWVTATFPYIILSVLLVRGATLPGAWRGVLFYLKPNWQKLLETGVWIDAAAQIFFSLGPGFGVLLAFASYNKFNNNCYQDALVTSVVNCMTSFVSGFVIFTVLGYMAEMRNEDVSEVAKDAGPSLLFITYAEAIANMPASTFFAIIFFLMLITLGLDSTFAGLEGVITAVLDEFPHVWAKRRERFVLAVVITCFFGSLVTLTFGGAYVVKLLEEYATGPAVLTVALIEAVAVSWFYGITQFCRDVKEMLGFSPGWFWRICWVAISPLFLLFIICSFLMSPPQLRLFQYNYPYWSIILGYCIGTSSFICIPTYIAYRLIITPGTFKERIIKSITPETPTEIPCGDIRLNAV
Sequence of Opiate μ (OP3, MOP) (P35372 whole entry): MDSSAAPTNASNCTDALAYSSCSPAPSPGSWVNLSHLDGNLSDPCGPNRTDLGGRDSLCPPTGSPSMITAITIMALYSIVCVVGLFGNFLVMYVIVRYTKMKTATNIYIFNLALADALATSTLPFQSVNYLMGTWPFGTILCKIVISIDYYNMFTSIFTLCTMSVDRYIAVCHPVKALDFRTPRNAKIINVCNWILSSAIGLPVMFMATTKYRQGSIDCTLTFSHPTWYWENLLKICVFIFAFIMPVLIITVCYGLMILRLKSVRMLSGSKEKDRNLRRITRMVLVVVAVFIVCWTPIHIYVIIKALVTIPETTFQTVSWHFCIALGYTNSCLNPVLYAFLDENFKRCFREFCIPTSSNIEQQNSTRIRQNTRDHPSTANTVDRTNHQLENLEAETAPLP
Sequence of CYP 3A4 (P08684 whole entry): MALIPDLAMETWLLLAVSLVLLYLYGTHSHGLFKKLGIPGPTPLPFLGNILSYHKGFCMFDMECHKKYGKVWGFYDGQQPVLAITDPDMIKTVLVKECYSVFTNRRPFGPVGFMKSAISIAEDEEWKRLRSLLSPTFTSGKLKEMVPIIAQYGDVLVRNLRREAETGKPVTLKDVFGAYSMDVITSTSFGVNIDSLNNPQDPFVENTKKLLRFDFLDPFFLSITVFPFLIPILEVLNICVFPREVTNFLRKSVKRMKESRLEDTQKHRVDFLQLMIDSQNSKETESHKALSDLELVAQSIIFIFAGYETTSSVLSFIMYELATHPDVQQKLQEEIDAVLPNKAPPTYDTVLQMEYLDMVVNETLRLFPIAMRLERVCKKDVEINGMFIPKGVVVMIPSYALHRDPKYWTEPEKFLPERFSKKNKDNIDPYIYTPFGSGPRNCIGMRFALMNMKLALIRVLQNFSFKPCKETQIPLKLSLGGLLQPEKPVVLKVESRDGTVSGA
Sequence of Opiate κ (OP2, KOP) (P41145 whole entry): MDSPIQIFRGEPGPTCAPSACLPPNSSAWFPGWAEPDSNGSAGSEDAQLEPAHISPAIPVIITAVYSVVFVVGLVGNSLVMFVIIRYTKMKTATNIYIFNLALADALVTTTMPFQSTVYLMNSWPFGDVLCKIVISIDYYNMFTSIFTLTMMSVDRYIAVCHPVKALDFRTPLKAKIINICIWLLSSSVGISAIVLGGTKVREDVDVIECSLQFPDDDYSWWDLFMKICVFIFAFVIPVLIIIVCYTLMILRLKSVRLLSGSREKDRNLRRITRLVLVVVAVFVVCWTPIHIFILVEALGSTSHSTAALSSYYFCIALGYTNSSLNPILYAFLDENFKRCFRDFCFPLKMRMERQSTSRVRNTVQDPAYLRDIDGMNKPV
Sequence of Adenosine A1 (P30542 whole entry): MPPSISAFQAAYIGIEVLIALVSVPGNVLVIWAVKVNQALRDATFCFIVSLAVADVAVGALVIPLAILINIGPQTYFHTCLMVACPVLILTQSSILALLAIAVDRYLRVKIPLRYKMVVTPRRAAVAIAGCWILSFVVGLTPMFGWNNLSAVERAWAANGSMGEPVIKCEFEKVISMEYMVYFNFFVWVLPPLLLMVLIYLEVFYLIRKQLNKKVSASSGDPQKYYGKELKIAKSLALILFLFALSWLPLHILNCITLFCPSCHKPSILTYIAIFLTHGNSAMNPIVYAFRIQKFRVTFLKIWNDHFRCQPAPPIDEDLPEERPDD

SMILES: Cn1cc2c(-c3cc(F)c(CN4Cc5ncccc5C4=O)c(F)c3)cccc2n1 [compound 1, reference compound]
- cholinergic toxicity in Phase I SAD trial [1]: without any observed cholinergic toxicity

SMILES: Cn1cc2c(-c3cc(F)c(CN4Cc5ncccc5C4=O)c(F)c3)ccc(C(C)(C)O)c2n1 [compound 7]
- inhibition at 10 µM (Opiate κ (OP2, KOP)): 15%
- predicted human dose ([2]; QD): 32 to 84 mg
- predicted human CLp ([2]; geometric mean of six methods): 2.6 mL/min/kg
- predicted human Vss ([2]; geometric mean of six methods): 1.16 L/kg
- predicted human oral bioavailability ([2]; geometric mean of six methods): 79%
- predicted human t1/2 ([2]; geometric mean of six methods): 5.1 h
- 2B6 induction (2B6): 11.5%
- inhibition at 10 µM (Calcium Channel N-Type): -11%
- pIC50 (CYP 3A4): < 4.52
- inhibition at 10 µM (Opiate μ (OP3, MOP)): 2%
- % Inhibition at 10 µM [3]: -1%
- inhibition at 10 µM (Adenosine A1): -2%
- pIC50 (CYP 2B6): < 4.52
- % Inhibition at 10 µM (Purinergic P2X): 4%
- bioavailability (multispecies PK, summary; read-out: %F, multispecies): > 65%
- clearance (multispecies PK, summary; read-out: Clp s, multispecies): < 10 mL/min/kg
- inhibition at 10 µM [4]: -1%
- inhibition at 10 µM (Opiate δ1 (OP1, DOP)): -2%
